From article PMC7970697, “Inhibition and Induction by Poziotinib of Different Rat Cytochrome P450 Enzymes In Vivo and in an In Vitro Cocktail Method” (Frontiers in Pharmacology, 2021)

Assay: in vivo
Conditions: for MRT last: MRT(0–t); for MRT inf: MRT(0–∞); for half-life: t1/2z; for CL/F: CLz/F; for Vd/F: Vz/F
Protocol: Samples were analyzed by a UPLC-MS/MS system equipped with a triple quadrupole mass spectrometer (Waters Corp., Milford, MA, United States) and Acquity UPLC BEH C18 column (1.7 μm, 2.1 × 50 mm) at 40°C. The mobile phase consisted of acetonitrile (A) and 0.1% formic acid (B) with a linear gradient elution at 0.4 ml/min for 3 min.
Twelve male Sprague-Dawley rats (230 ± 20 g) were randomly divided into treated and control groups, with 6 in each group. […] The supernatant was mixed with 200 μL of acetonitrile and 20 μL of 0.5 μg/ml diazepam (IS), vortexed for 30 s, centrifuged at 13,000 rpm for 5 min, and the supernatant was injected into the UPLC-MS/MS system for analysis.
Pharmacokinetic parameters were calculated using DAS software (Version 3.2.8). SPSS software (version 16.0; SPSS Inc., Chicago, IL, United States) was used to analyze the significance of differences between the main pharmacokinetic parameters. p < 0.05 was considered statistically significant. GraphPad (version 8.0; GraphPad Software Inc., San Diego, CA, United States) was used to calculate IC50 and plot the plasma concentration-time curves and inhibition plots (type of inhibition, time- and concentration-dependence).

[1] = male, Sprague-Dawley, rat, in vivo, po, 10 mg/kg
[2] = male, Sprague-Dawley, rat, in vivo, po, 10 mg/kg, Tmax
[3] = male, Sprague-Dawley, rat, plasma, po, 10 mg/kg
[4] = male, Sprague-Dawley, rat, plasma, po, 10 mg/kg, Control group: oral probe cocktail only (10 mg/kg; tolbutamide 1 mg/kg), rats, n = 6
[5] = male, Sprague-Dawley, rat, plasma, po, 10 mg/kg, Treated group: oral probe cocktail (10 mg/kg; tolbutamide 1 mg/kg) after 7 days oral poziotinib 5 mg/kg, rats, n = 6
[6] = male, Sprague-Dawley, rat, plasma, po, 10 mg/kg, Cmax, Treated group: oral probe cocktail (10 mg/kg; tolbutamide 1 mg/kg) after 7 days oral poziotinib 5 mg/kg, rats, n = 6
[7] = rats, poziotinib 5 mg/kg 7 days vs probes only
[8] = rats, poziotinib 5 mg/kg 7 days vs probes only (Discussion)
[9] = male, Sprague-Dawley, rat, in vivo, po, Control group: oral probe cocktail only (10 mg/kg; tolbutamide 1 mg/kg), rats, n = 6
[10] = male, Sprague-Dawley, rat, in vivo, po, Treated group: oral probe cocktail (10 mg/kg; tolbutamide 1 mg/kg) after 7 days oral poziotinib 5 mg/kg, rats, n = 6
[11] = male, Sprague-Dawley, rat, in vivo, po, 10 mg/kg, Control group: oral probe cocktail only (10 mg/kg; tolbutamide 1 mg/kg), rats, n = 6
[12] = male, Sprague-Dawley, rat, in vivo, po, 10 mg/kg, Treated group: oral probe cocktail (10 mg/kg; tolbutamide 1 mg/kg) after 7 days oral poziotinib 5 mg/kg, rats, n = 6

CC(NC(C)(C)C)C(=O)c1cccc(Cl)c1 (stereo not shown) [Bupropion]
AUC(0-t) [1]: 405 ± 87.3 ng·h/mL | AUC(0–∞) [1]: 421.07 ± 94.21 ng·h/mL | MRT(0–t) [1]: 2.37 ± 0.53 h | MRT(0–∞) [1]: 2.87 ± 1.15 h | Tmax [1]: 0.46 ± 0.29 h | t1/2z [1]: 2.51 ± 1.34 h | AUC(0-inf) [1]: 613 ± 130 ng·h/mL | MRT last [1]: 3.33 ± 0.84 h | MRT inf [1]: 4.34 ± 1.58 h | Tmax [2]: 0.75 ± 0.27 h | half-life [1]: 3.35 ± 1.21 h | AUC(0-t) [3]: 565 ± 92.5 ng·h/mL | CL/F [4]: 412 mL/min/kg | CL/F [5]: 281 mL/min/kg | Cmax (male, Sprague-Dawley, rat, plasma, po, 10 mg/kg, Cmax, Control group: oral probe cocktail only (10 mg/kg; tolbutamide 1 mg/kg), rats, n = 6): 170 ± 60.1 ng/mL | Cmax [6]: 173 ± 60.8 ng/mL | Vd/F [4]: 85.4 ± 37.7 L/kg | Vd/F [5]: 81.8 ± 38.3 L/kg | AUC(0–t) fold higher in treated than control group [7]: 1.39 fold | AUC(0–∞) fold higher in treated than control group [7]: 1.46 fold | CLz/F fold lower in treated than control group [7]: 1.47 fold | MRT(0–t) fold higher in treated than control group [7]: 1.41 fold | Tmax fold higher in treated than control group [7]: 1.63 fold | Vz/F fold lower in treated than control group [7]: 1.04 fold | AUC(0–t) of treated group as fold of control group value [8]: 1.40 fold | CLz/F of treated group as fold of control group value [8]: 0.68 fold

COc1ccc2c(c1)[C@]13CCCC[C@@H]1[C@H](C2)N(C)CC3 [Dextromethorphan]
AUC(0-t) (male, Sprague-Dawley, rat, in vivo, po, AUC(0–t), Control group: oral probe cocktail only (10 mg/kg; tolbutamide 1 mg/kg), rats, n = 6): 575 ± 77.7 ng·h/mL | AUC(0-t) (male, Sprague-Dawley, rat, in vivo, po, AUC(0–t), Treated group: oral probe cocktail (10 mg/kg; tolbutamide 1 mg/kg) after 7 days oral poziotinib 5 mg/kg, rats, n = 6): 640 ± 197 ng·h/mL | AUC(0-inf) [9]: 586 ± 79.3 ng·h/mL | AUC(0-inf) [10]: 722 ± 231 ng·h/mL | CL/F [9]: 289 mL/min/kg | CL/F [10]: 250 mL/min/kg | Cmax (male, Sprague-Dawley, rat, in vivo, po, Cmax, Control group: oral probe cocktail only (10 mg/kg; tolbutamide 1 mg/kg), rats, n = 6): 152 ± 57.7 ng/mL | Cmax (male, Sprague-Dawley, rat, in vivo, po, Cmax, Treated group: oral probe cocktail (10 mg/kg; tolbutamide 1 mg/kg) after 7 days oral poziotinib 5 mg/kg, rats, n = 6): 153 ± 42.3 ng/mL | MRT last [9]: 3.12 ± 0.37 h | MRT last [10]: 3.54 ± 0.51 h | MRT inf [9]: 3.35 ± 0.47 h | MRT inf [10]: 5.19 ± 2.68 h | Tmax (male, Sprague-Dawley, rat, in vivo, po, Tmax, Control group: oral probe cocktail only (10 mg/kg; tolbutamide 1 mg/kg), rats, n = 6): 1.04 ± 0.56 h | Tmax (male, Sprague-Dawley, rat, in vivo, po, Tmax, Treated group: oral probe cocktail (10 mg/kg; tolbutamide 1 mg/kg) after 7 days oral poziotinib 5 mg/kg, rats, n = 6): 1.58 ± 0.92 h | Vd/F [9]: 49 ± 10.7 L/kg | Vd/F [10]: 75.5 ± 33.1 L/kg | half-life [9]: 1.98 ± 0.43 h | half-life [10]: 3.72 ± 2.09 h | difference in main pharmacokinetic parameters between treated and control group (in words) [7]: no significant differences

Cc1ncc2n1-c1ccc(Cl)cc1C(c1ccccc1F)=NC2 [Midazolam]
AUC(0-t) (male, Sprague-Dawley, rat, in vivo, po, 10 mg/kg, AUC(0–t), Control group: oral probe cocktail only (10 mg/kg; tolbutamide 1 mg/kg), rats, n = 6): 1350 ng·h/mL | AUC(0-t) (male, Sprague-Dawley, rat, in vivo, po, 10 mg/kg, AUC(0–t), Treated group: oral probe cocktail (10 mg/kg; tolbutamide 1 mg/kg) after 7 days oral poziotinib 5 mg/kg, rats, n = 6): 1280 ng·h/mL | AUC(0-inf) [11]: 1360 ng·h/mL | AUC(0-inf) [12]: 1310 ng·h/mL | CL/F [11]: 128 mL/min/kg | CL/F [12]: 139 mL/min/kg | Cmax (male, Sprague-Dawley, rat, in vivo, po, 10 mg/kg, Cmax, Control group: oral probe cocktail only (10 mg/kg; tolbutamide 1 mg/kg), rats, n = 6): 868 ± 251 ng/mL | Cmax (male, Sprague-Dawley, rat, in vivo, po, 10 mg/kg, Cmax, Treated group: oral probe cocktail (10 mg/kg; tolbutamide 1 mg/kg) after 7 days oral poziotinib 5 mg/kg, rats, n = 6): 582 ± 296 ng/mL | MRT last [11]: 1.58 ± 0.23 h | MRT last [12]: 2.01 ± 0.43 h | MRT inf [11]: 1.62 ± 0.24 h | MRT inf [12]: 2.44 ± 1.12 h | Tmax (male, Sprague-Dawley, rat, in vivo, po, 10 mg/kg, Tmax, Control group: oral probe cocktail only (10 mg/kg; tolbutamide 1 mg/kg), rats, n = 6): 0.33 ± 0.13 h | Tmax (male, Sprague-Dawley, rat, in vivo, po, 10 mg/kg, Tmax, Treated group: oral probe cocktail (10 mg/kg; tolbutamide 1 mg/kg) after 7 days oral poziotinib 5 mg/kg, rats, n = 6): 0.58 ± 0.34 h | Vd/F [11]: 18.6 ± 5.95 L/kg | Vd/F [12]: 32.8 ± 20.8 L/kg | half-life [11]: 1.7 ± 0.55 h | half-life [12]: 2.67 ± 1.39 h | difference in main pharmacokinetic parameters between treated and control group (in words) [7]: not significant

CCOc1ccc(NC(C)=O)cc1 [Phenacetin]
Cmax (Control group: oral probe cocktail only (10 mg/kg; tolbutamide 1 mg/kg), rats, n = 6): 2,869.22 ± 783.32 µg/L | AUC(0-t) [1]: 6320 ng·h/mL | MRT(0–t) [1]: 1.46 ± 0.22 h | Tmax [1]: 0.75 ± 0.27 h | t1/2z [1]: 0.55 ± 0.15 h | MRT last [1]: 1.41 ± 0.13 h | MRT inf [1]: 1.46 ± 0.15 h | Tmax [2]: 0.54 ± 0.25 h | half-life [1]: 0.8 ± 0.12 h | AUC(0-t) [3]: 2770 ng·h/mL | CL/F [4]: 30.7 mL/min/kg | CL/F [5]: 66.5 mL/min/kg | Cmax [6]: 1490 ng/mL | Vd/F [4]: 1.57 ± 0.9 L/kg | Vd/F [5]: 4.77 ± 2.26 L/kg | AUC (0–t) reduced by, treated vs control group [7]: 56.08% | AUC (0–∞) reduced by, treated vs control group [7]: 55.81% | CLz/F increased by, treated vs control group [7]: 116.85% | Cmax reduced by, treated vs control group [7]: 48.06% | Vz/F increased by, treated vs control group [7]: 203.82% | t1/2 increased by, treated vs control group [7]: 45.45%
